{"source": "patent US20130236473A1", "about": "“THERAPEUTIC AGENTS AND PROPHYLACTIC AGENTS FOR SYMPTOMS ACCOMPANYING AUTOIMMUNE DISEASES, INFLAMMATORY DISEASES, ALLERGY DISEASES AND ORGAN TRANSPLANTS” (OSAKA UNIVERSITY, priority 2010, published 2013)", "key": {"IL-6 amplifier [1]": {"system": "IL-6 amplifier", "test": "Reference Example 5: mIL-6 production on IL-6 amplifier activation with epiregulin in BC-1 cells (ELISA)", "format": "cell-based", "settings": "24 hours, 100 ng/ml mouse epiregulin protein, conditions (e) to (h), inhibitor 0, 0.1, 1 or 10 micromoles/L", "experimental": "After the culture, the production amount of mouse IL-6 (mIL-6) protein in each of the clones, i.e., the amount of mIL-6 protein in the medium solution, was quantified by an ELISA method. In the ELISA method, anti-mIL-6 antibody and an ELISA kit, both manufactured by eBioscience, Inc., were used. In addition, a cell proliferation assay was performed for each of the clones, using a TetraColor ONE kit (Seikagaku Corporation). […]\nAfter the culture, the production amount of mouse IL-6 protein under each condition was quantified by an ELISA method in the same manner as in Reference Example 1. […]"}, "IL-6 amplifier [2]": {"system": "IL-6 amplifier", "test": "Example 1: mIL-6 protein production on IL-6 amplifier activation in BC-1 cells or MEFs (ELISA)", "format": "cell-based, mouse", "settings": "30 min pretreatment with 0.1, 1 or 10 micromoles/L ErbB1 inhibitor, then conditions (a) to (d), 24 hours, 10% FBS", "experimental": "2×10^5 mouse BC-1 cells were cultured in an RPMI 1640 medium for 24 hours under each of the following conditions: • (a) in the presence of 10% FBS, • (b) with the addition of 50 ng/ml of hIL-6 protein and 50 ng/ml of hIL-6R protein (hereinafter referred to as “hIL-6/6R proteins”) and in the presence of 10% FBS, • (c) with the addition of 50 ng/ml of mIL-17A protein and in the presence of 10% FBS, • (d) with the addition of hIL-6/6R proteins at 50 ng/ml and mIL-17A protein at 50 ng/ml and in the presence of 10% FBS, • (e) in the absence of FBS, • (f) with the addition of hIL-6/6R proteins each at 50 ng/ml and in the absence of FBS, • (g) with the addition of 50 ng/ml of mIL-17A protein and in the absence of FBS, or • (h) with the addition of hIL-6/6R proteins each at 50 ng/ml and mIL-17A protein at 50 ng/ml and in the absence of FBS.\n2×10^5 mouse BC-1 cells or 2×10^5 mouse embryonic fibroblasts (MEFs) were cultured for 30 minutes in an RPMI 1640 medium, in the presence of 0.1, 1, or 10 micromoles/L of PD153065; or in the presence of 0.1, 1, or 10 micromoles/L of PD168393 (Calbiochem). […]\nAfter the culture, the production amount of mouse IL-6 protein under each condition was quantified by an ELISA method. […]"}, "[3]": {"system": "cytokine-induced arthritis mice", "test": "Clinical score of arthritis in cytokine-induced arthritis mice (F759 mice)", "format": "in vivo, mouse", "experimental": "On each of days 0, 1, and 2, 100 ng of mIL-6 protein and 100 ng of mIL-17A protein, as cytokines, were injected into the malleolus joints of 8-week-old F759 mice to induce arthritis. At the same time, on each of days 0 to 23, 10 micrograms of PD153035 dissolved in DMSO was injected into the malleolus joints (n=6). Mice injected with the cytokines and DMSO only (n=6), and mice injected with DMSO only (n=6) served as control groups.\nFrom day 0 to day 23, symptom of arthritis was evaluated by clinical scores. Specific examples of the evaluation are described below and in FIG. 2. Specifically, for example, the clinical score is 0 if the movable range of malleolus joint is a healthy state as shown in FIG. 14(A), and the clinical score is 3 if severe arthritis develops and the movable range of malleolus joint is 60° smaller than the healthy case as shown in FIG. 14(B). Further, the clinical score is 1 if the movable range of malleolus joint is 20° smaller than the healthy case, and the clinical score is 2 if the movable range of malleolus joint is 40° smaller than the healthy case.\nF759 mice used as cytokine-induced arthritis mice are genetically modified mice in which F759 mutation (in which tyrosine residue 759 (Y) is replaced by phenylalanine (F) in gp130 protein, a receptor of IL-6 protein, etc.) is introduced (Non-Patent Literature 3); and in F759 mice, dysregulation of IL-6 amplifier is observed (Non-Patent Literature 1). Dysregulation of IL-6 amplifier observed in F759 mice is believed to be caused as follows: SOCS3 protein signal transduction, which is dependent on the phosphorylation status of tyrosine residue 759 (Y759) of gp130 protein, is inhibited by F759 mutation, thereby decreasing the action of suppressing STAT3 signals via SOCS3 protein to enhance STAT3-dependent signals. It is known that autoimmune arthritis develops in almost 100% of the mice one to one-and-a-half years after birth. It is also known that arthritis develops earlier by injecting inflammatory cytokines, such as IL-6 and IL-17, into joints (e.g., malleolus joints) of the mice. […]"}, "IL-6 amplifier [4]": {"system": "IL-6 amplifier", "test": "Reference Example 10: hIL-6 gene expression in human synovial fibroblasts with epiregulin (RT-PCR)", "format": "cell-based", "settings": "3 hours, 100 ng/ml epiregulin protein, inhibitor 0 or 10 micromoles/L", "description": "In addition, the expression amounts of mIL-6 gene were quantified by a real-time RT-PCR method. The real-time RT-PCR method was performed using a GeneAmp 5700 sequence detection system (Applied Biosystems) and a SYBER green PCR Master Mix (Sigma-Aldrich Co. LLC.). The conditions of the PCR amplification were as follows: the amplification was performed in 40 cycles, each cycle consisting of thermal denaturation (94° C., 15 seconds), annealing (60° C., 30 seconds), and extension reaction (72° C., 30 seconds)). […] After the culture, the expression amount of human IL-6 gene under each condition was quantified by a RT-PCR method in the same manner as in Reference Example 9."}, "[5]": {"system": "experimental autoimmune encephalomyelitis (EAE) mice", "test": "Clinical score in experimental autoimmune encephalomyelitis (EAE) mice", "format": "in vivo, mouse", "settings": "5 mg intraperitoneal on each of days 0 to 6, scored day 0 to 13, control DMSO", "experimental": "EAE mice were made according to the method described in Non-Patent Literature 1.\n200 micrograms of MOG (myelin oligodendrocyte glycoprotein) peptide (peptide comprising residues 33 to 55 of the full-length amino acid sequence of mouse MOG protein (amino acid sequence shown in SEQ ID NO: 9)) dissolved in Complete Freund's adjuvant (CFA) was administered to the tail of a 7- to 8-week-old C57/B6-strain mouse by subcutaneous injection, followed by intravenous injection of 200 nanograms of pertussis toxin (PTx).\nA MOG-specific CDCT cell group was obtained according to a ordinary method from the spleen removed after feeding the above mouse for 10 days. 2×10^5 cells of the MOG-specific CDCT cells were cultured with 5×10^5 C57/B6-strain mouse bone marrow-derived dendritic cells (BMDCs) pulsed with MOG peptide in an RPMI 1640 medium containing 10% FBS in the presence of 20 ng/ml of recombinant IL-23 (rIL-23) protein in an incubator at a temperature of 37° C. to obtain a cell group containing pathogenic Th17 cells. […]\nFrom day 0 to day 12, the clinical score in each mouse was evaluated according to the method described in Non-Patent Literature 1. […]\nFrom day 0 to day 13, the clinical score in each mouse was evaluated according to the method described in Non-Patent Literature 1."}, "IL-6 amplifier [6]": {"system": "IL-6 amplifier", "test": "Reference Example 3: effect of growth factors on mIL-6 protein production in BC-1 cells (ELISA)", "format": "cell-based, mouse", "settings": "24 hours, hIL-6/6R and mIL-17A each 50 ng/ml, growth factor added, versus none added", "experimental": "2×10^5 mouse BC-1 cells were cultured for 24 hours in an RPMI 1640 medium containing hIL-6/6R proteins each at 50 ng/ml and mIL-17A protein at 50 ng/ml under the condition in which 100 ng/ml of mouse EGF protein (R&D Systems, Inc.), 100 ng/ml of human HB-EGF protein (R&D Systems, Inc.), 0.1, 1, 10, or 100 ng/ml of mouse epiregulin protein (R&D Systems, Inc.), 50 ng/ml of mouse VEGF protein (R&D Systems, Inc.), 50 ng/ml of mouse FGF7 protein (R&D Systems, Inc.), or 300 ng/ml of mPDGF-CC protein (R&D Systems, Inc.) was separately added. Mouse BC-1 cells cultured under the condition in which only hIL-6/6R proteins and mIL-17A protein were added served as a control group.\nAfter the culture, the production amount of mIL-6 protein under each condition was quantified by an ELISA method in the same manner as in Reference Example 1. FIGS. 5 and 6 show the results."}, "[7]": {"settings": "mIL-6 + mIL-17A days 0, 1, 2, 10 micrograms into malleolus joints on each of days 0 to 23, scored day 0 to 23"}}}
{"compound": "COc1cc2ncnc(Nc3cccc(Br)c3)c2cc1OC", "note": "[PD153035, 4-[(3-Bromophenyl)amino]-6,7-dimethoxyquinazoline]", "values": [{"measurement": "Increase in the amount of transcription of mIL-6 due to epiregulin protein (production amount of mouse IL-6 protein by ELISA)", "setting": "IL-6 amplifier [1]", "result": "inhibited in a manner dependent on the addition amount"}, {"measurement": "increase in the expression amount of mIL-6 protein due to activation of IL-6 amplifier", "setting": "IL-6 amplifier [2]", "result": "can be suppressed"}, {"measurement": "symptom of arthritis (clinical score)", "setting": "[3]; [7]", "result": "symptom of cytokine-induced arthritis was alleviated, or worsening of symptom of cytokine-induced arthritis was suppressed"}, {"measurement": "Increase in the amount of transcription of hIL-6 due to epiregulin protein", "setting": "IL-6 amplifier [4]", "result": "inhibited in a manner dependent on the addition amount"}]}
{"compound": "C=CC(=O)Nc1ccc2ncnc(Nc3cccc(Br)c3)c2c1", "note": "[PD168393, 4-[(3-Bromophenyl)amino]-6-acrylamidoquinazoline]", "values": [{"measurement": "increase in the expression amount of mIL-6 protein due to activation of IL-6 amplifier", "setting": "IL-6 amplifier [2]", "result": "can be suppressed"}, {"measurement": "symptom of arthritis (clinical score)", "setting": "[3]; mIL-6 + mIL-17A days 0, 1, 2, 10 micrograms into malleolus joints on each of days 0 to 11, scored day 0 to 23", "result": "symptom of cytokine-induced arthritis was alleviated, or worsening of symptom of cytokine-induced arthritis was suppressed"}]}
{"compound": "COc1cc2ncnc(Nc3ccc(F)c(Cl)c3)c2cc1OCCCN1CCOCC1", "note": "[gefitinib, N-(3-chloro-4-fluoro-phenyl)-7-methoxy-6-(3-morpholin-4-ylpropoxy) quinazolin-4-amine]", "values": [{"measurement": "symptom of arthritis (clinical score)", "setting": "[3]; [7]", "result": "symptom of cytokine-induced arthritis was alleviated, or worsening of symptom of cytokine-induced arthritis was suppressed"}, {"measurement": "symptom of experimental autoimmune encephalomyelitis (clinical score)", "setting": "[5]", "result": "symptom of experimental autoimmune encephalomyelitis was alleviated, or worsening of symptom of experimental autoimmune encephalomyelitis was suppressed"}]}
{"compound": "EGF protein: mouse EGF protein (R&D Systems, Inc.), ligand of ErbB1 protein (NSYPGCPSSYDGYCLNGGVCMHIESLDSYTCNCVIGYSGDRCQTRDLRWWELR)", "values": [{"measurement": "production amount of mIL-6 protein", "setting": "IL-6 amplifier [6]", "result": "significantly (p value <0.01) increased"}]}
